Patent publication US20030125269A1, “T-TYPE CALCIUM CHANNEL” (priority 1998, published 2003)
“Also recorded” adds a separate entry of the source. Structures can show the parent of a compound that is named as a salt.

Tests used:
INS-1 cells [1] = experiment: Basal [Ca^2+]i in INS-1 cells by fura-2 fluorescence; format: cell-based, rat
Procedure: [Ca^2+]i was directly measured by the ratio of fluorescence excitations at Ca^2+-bound […], and then the ratio was converted to the calcium concentration. The bath solution contained […], 4 mM KCl, 2 mM CaCl2, and 2 mM MgCl2.
The effect of basal [Ca^2+]i on Ca^2+ influx was examined using the Ca^2+ dye indicator fura-2 and fluorescence measurements. Voltage-dependent Ca^2+ influx in a single cell was obtained by perfusion of an osmotically balanced solution containing 50 mM KCl into the recording chamber. […] The resting basal [Ca^2+]i in INS-1 cells was approximately 60-80 nM under the experimental conditions. [Ca^2+]i was determined by a standard curve obtained from a fura-2 calcium imaging kit (Molecule Probes). The empirical Kd obtained for calcium binding to fura-2 in the system was 296±20 nM. When basal [Ca^2+]i remains low, subsequent voltage stimulation with 50 KCl induces rapid and large calcium influx into the cell and these calcium changes are stereotyped upon repetitive stimulation when basal calcium is restored (FIG. 10). In this experiment, following the 50 KCl depolarization, the cell was repolarized by perfusion of the original 5 mM KCl solution. After repolarization, basal [Ca^2+]i slowly reset and then a second 50 KCl depolarization induced a similar [Ca^2+]i transient. When the basal calcium is not allowed to reset, a defect in the second voltage induced calcium transient occurs (FIG. 11). […] Therefore effectors of basal [Ca^2+]i will have important impact on the amount of calcium that can enter the cell.

LVA Ca^2+ current = experiment: Cytokine-induced LVA Ca^2+ current in primary cultured mouse islet cells; format: cell-based; details: 10 μM; IL-1β 25 U/ml and IFNγ 300 U/ml for 6 h; n=4
Procedure: The effects of chronic cytokine treatment on the voltage-sensitive Ca^2+ currents in primary cultured mouse islet cells was examined. After treatment with IL-1β (25 U/ml) and IFNγ (300 U/ml) for 6 h, an LVA Ca^2+ current was induced in these cells (FIG. 23A). This current was present in 48% of cytokine-treated mouse islet cells. No such current was observed when the cells were treated with either IL-1β or IFNγ alone. […] This LVA current has not been observed in non-treated cells. […] It has been reported that low concentration of NiCl2 selectively block LVA current, a profound […] in Ca^2+ current density was observed over the voltages between −20 and 20 mV.

HIT-T15 = experiment: Glucose-induced insulin secretion in HIT-T15 cells; format: cell-based; details: 11.1 mM glucose, variable concentrations of NiCl2
INS-1 cells [2] = experiment: Action potentials (excitability) of INS-1 cells; format: cell-based, rat; details: 100 μM
Procedure: Particularly, activation of T type Ca^2+ channels will increase the firing frequency of the depolarizing spikes mediated by opening L type Ca^2+ channels (FIG. 19A). Activation of T type Ca^2+ channel will also decrease the time of developing action potential elicited by up-threshold depolarizations (FIG. 19B).
To further establish that T type Ca^2+ current enhances β-cells excitability, 100 μM NiCl2 was administered to effectively block T type Ca^2+ channels.

INS-1 cells [3] = experiment: Transient spontaneous calcium spikes in a single INS-1 cell, epi-fluorescence; format: cell-based, rat; details: 30 μM, bath solution without glucose
Source text: The cellular mechanism of the spontaneous elevation of intracellular Ca^2+ was investigated with the epi-fluorescence measurement method. […] The Role of T-type Ca^2+ channels in this spontaneous process was examined as well. […] These spontaneous calcium spikes may contribute to basal insulin secretion and control of basal [Ca^2+]i.

INS-1 cells [4] = experiment: Glucose-induced insulin secretion in INS-1 cells; format: cell-based, rat; details: 11.1 mM glucose, variable concentrations of NiCl2
mouse islet cells = experiment: Cytokine-induced increase in basal [Ca^2+]i in primary cultured mouse islet cells; format: cell-based; details: 10 μM; IL-1β 25 U/ml and IFNγ 300 U/ml for 6 h
Source text: LVA Ca^2+ channels are activated at low membrane potentials. This unique feature may allow then to regular [Ca^2+]i under nonstimulatory conditions. Indeed, basal [Ca^2+]i in cytokine-treated cells was approximately 3-fold higher than in nontreated cells (FIG. 24A).

β-TC3 cells [5] = experiment: Cytokine-induced cell death in β-TC3 cells; format: cell-based, mouse; details: NiCl2 20 μM, nifedipine 10 μM; IL-1β 25 U/ml, IFNγ 100 U/ml, TNFα 100 U/ml
Source text: The function of LVA Ca^2+ channels in cytokine-mediated cell death in β-TC3 cells was then examined.

NIT-1 cells [6] = experiment: Spontaneous elevation of [Ca^2+]i in NIT-1 cells, Fluo-3 fluorescent imaging; format: cell-based, mouse; details: 10 μM, 3.3 mM glucose, 10 minute observation
Procedure: NIT-1 cells were cultured in medium containing 3.3 mM glucose and preloaded with 2.5 μM Fluo-3 μM. The numbers of spontaneous calcium elevated cells were counted and compared to the total cells being used for a 10 minute observation period. 10 μM NiCl2 inhibited 90% of spontaneous elevation of basal Ca^2+.

β-TC3 cells [7] = experiment: Cytokine-induced DNA fragmentation in β-TC3 cells; format: cell-based, mouse; details: β-TC3 cells (n=2); same results in NIT-1 cells (n=3)
T-type Ca^2+ current [8] = biological target: T-type Ca^2+ current (Rattus norvegicus, UniProt O54898); experiment: Patch clamp recording of T-type Ca^2+ current in insulin-secreting (INS-1) cells; format: cell-based; details: for reversibility of the inhibition of T-type Ca^2+ current: small volume delivered near the cell
T-type Ca^2+ current (Rattus norvegicus, UniProt O54898), sequence (O54898 whole entry): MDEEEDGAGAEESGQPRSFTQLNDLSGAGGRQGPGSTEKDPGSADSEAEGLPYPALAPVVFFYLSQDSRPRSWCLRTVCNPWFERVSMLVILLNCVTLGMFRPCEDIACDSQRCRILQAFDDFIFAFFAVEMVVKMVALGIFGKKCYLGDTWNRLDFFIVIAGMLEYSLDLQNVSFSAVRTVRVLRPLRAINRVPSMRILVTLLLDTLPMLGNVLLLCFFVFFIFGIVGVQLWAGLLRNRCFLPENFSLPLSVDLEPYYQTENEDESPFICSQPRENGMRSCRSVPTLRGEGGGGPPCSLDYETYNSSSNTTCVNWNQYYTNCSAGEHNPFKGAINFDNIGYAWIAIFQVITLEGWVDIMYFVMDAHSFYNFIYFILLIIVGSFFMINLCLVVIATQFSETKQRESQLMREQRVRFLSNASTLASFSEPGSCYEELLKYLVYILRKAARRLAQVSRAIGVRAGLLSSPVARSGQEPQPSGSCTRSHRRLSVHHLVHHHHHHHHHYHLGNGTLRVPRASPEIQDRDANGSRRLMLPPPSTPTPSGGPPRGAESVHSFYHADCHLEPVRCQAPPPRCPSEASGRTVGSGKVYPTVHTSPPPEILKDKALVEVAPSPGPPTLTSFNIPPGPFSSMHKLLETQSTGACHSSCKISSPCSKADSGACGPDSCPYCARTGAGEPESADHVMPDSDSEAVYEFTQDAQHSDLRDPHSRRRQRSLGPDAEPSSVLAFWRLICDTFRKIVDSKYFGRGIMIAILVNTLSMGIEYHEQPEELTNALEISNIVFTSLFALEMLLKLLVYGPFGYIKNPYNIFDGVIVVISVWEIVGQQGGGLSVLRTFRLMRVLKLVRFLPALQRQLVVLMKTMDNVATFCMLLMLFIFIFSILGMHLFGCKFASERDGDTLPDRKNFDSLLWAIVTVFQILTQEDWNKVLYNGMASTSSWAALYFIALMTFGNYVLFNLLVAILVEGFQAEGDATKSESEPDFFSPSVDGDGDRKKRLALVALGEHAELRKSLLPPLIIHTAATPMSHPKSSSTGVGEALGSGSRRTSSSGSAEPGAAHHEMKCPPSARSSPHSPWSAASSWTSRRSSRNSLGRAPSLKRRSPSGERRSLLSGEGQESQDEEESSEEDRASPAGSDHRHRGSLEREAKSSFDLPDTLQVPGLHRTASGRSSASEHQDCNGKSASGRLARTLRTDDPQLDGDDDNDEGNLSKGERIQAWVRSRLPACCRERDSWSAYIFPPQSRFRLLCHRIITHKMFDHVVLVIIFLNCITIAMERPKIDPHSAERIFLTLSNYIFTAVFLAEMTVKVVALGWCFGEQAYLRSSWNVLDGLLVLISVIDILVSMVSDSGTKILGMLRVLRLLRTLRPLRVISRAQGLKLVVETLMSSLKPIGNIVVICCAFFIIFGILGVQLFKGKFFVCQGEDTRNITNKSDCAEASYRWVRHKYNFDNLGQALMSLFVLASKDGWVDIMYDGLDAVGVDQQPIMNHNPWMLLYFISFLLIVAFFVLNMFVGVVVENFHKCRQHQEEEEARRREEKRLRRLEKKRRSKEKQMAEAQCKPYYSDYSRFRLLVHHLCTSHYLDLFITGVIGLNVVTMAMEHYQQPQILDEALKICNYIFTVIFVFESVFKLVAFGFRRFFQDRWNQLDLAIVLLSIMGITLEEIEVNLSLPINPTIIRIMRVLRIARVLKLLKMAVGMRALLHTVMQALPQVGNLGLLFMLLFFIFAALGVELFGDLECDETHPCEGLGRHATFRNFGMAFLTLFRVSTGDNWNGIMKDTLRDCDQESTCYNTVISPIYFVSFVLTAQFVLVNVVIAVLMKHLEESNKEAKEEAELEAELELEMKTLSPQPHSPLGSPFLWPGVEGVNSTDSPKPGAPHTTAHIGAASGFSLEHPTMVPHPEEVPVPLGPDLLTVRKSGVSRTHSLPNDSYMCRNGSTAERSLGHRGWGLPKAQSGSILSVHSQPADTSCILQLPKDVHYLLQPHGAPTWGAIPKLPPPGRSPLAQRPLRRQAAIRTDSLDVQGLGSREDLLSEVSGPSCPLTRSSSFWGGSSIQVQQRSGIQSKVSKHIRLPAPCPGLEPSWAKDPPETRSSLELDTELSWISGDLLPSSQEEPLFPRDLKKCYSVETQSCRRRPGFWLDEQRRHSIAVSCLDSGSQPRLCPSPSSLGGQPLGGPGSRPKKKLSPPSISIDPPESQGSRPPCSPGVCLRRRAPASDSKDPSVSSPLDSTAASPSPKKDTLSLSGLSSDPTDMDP
Procedure: (§1) Cell Culture—INS-1 cells were cultured in RPMI 1640 medium containing 10% FBS, 25 U/ml penicillin, […] streptomycin and 50 μM mercaptoethanol in an atmosphere of 5% CO2 in air, at 37° C. for 2-5 days before recording.
(§2) β-cells Electrophysiological recording—The whole-cell recordings were carried out by the standard “giga-seal” patch clamp technique (Hamill et al.). The whole-cell recording pipettes were made of hemocapillaries (Warner), pulled by a two-stage puller (PC-10, Narishige International, New York, N.Y.), and heat polished with a microforge (MF200-1, World Precision Instruments, Sarasota, Fla.) before use. Pipette resistance was in the range of 2-5 MΩ in the internal solution. The recordings were performed at room temperature (22-25° C.). Currents were recorded using an EPC-9 patch-clamp amplifier (HEKA) and filtered at 2.9 kHz. Data were acquired with Pulse/PulseFit software (HEKA). Voltage-dependent currents were corrected for linear leak and residual capacitance by using an on-line P/n subtraction paradigm.
(§3) Solutions—The extracellular solution used in whole-cell Ca^2+ current recording contained (in mM): 10 CaCl21 110 tetraethylammonium-Cl (TEA-Cl), 10 CsCl, 10 N-2-hydroxyethylpiperazine-N′-2-ethanesulfonic acid (HEPES), 40 sucrose, 0.5 3,4-diaminopyridine, pH 7.3. The intracellular solution contained (in mM): 130 N-methyl-D-glucamine, 20 EGTA (free acid), 5 bis (2-aminophenoxy) ethane-N,N,N′,N′-tetraacetate (BAPTA), 10 HEPES, 6 MgCl2, 4 Ca(OH)2/pH was adjusted to 7.4 with methanesulfonate. 2 mM Mg-ATP was included in the pipette solution to minimize rundown of L-type Ca^2+ currents. For Perforated-patch recording, the extracellular solution contained (in mM): 26 Sucrose, 30 TEA-Cl, 10 HEPES, 5 KCl, 2 CaCl2, MgCl2, pH 7.3. The pipette solution contained (in mM): 65 CsOH, 65 CsMS, 20 sucrose, 10 HEPES, 10 MgCl2, 1 Ca(OH)2, pH 7.4.
(§4) The T-type Ca^2+ current was measured at −30 mV when the membrane was held at −90 mV and the L-type current was measured at +20 mV when the membrane was held at −40 mV. The currents were measured twice at each concentration of mibefradil with 2 min in between measurements.
(§5) A drug diffusing system was then used to test the reversibility of the antagonism of T- and L-type Ca^2+ currents by mibefradil. Small volumes (approximately 2 μl) of drugs were delivered in close proximity to the recording cell with a quartz capillary positioned by a micromanipulator. After administration, drugs diffused throughout the entire recording chamber containing 2 ml of bath solution. This drug diffusing system was used to test the reversibility of 30 μM of NiCl2 on the T-type Ca^2+ currents (FIG. 4).

L-type Ca^2+ current = experiment: Patch clamp recording (whole-cell and perforated patch) of L-type Ca^2+ current in insulin-secreting (INS-1) cells; format: cell-based, rat; details: for effect on L-type Ca^2+ current from inside of cells: 1 μM in the pipette solution, 5 min after patch formation
Procedure: as §1, §2, §3, §4, §5
This hypothesis was tested by applying a very low dose of mibefradil on cells and recording the L-type Ca^2+ currents for a long time in the perforated patch-clamp configuration.

T-type Ca^2+ current [9] = details: vascular smooth muscle cells; cited from earlier work
[10] = Mass spectrometric analysis of mibefradil and dm-mibefradil in INS-1 cells
Procedure: Mass Spectrometric Analysis—A VG 70-250 SEQ instrument (VG Analytical, Manchaster, UK) was used with fast atom bombardment (FAB) ionization mode to obtain mass spectra of the mibefradil and dm-mibefradil. Cultured INS-1 cells were treated with 20 μM mibefradil for various lengths of time under each experimental condition. The cell pellets were collected after washing three times with PBS and resuspended in 0.5 ml media for mass spectrometric analysis. For a 50 μl cell sample, 20 μl internal standard solution (40 μM verapamil, MW: 454) and 5 μl glycerol was added, and 4 μl of this mixture was used for FAB-MS. Several positive ion spectra were recorded in the mass range m/z 750-100 at a mass resolution of 1000, and a scan speed of 2 second/decade. For mibefradil, m/z 496 was the dominant ion (M+H)^+ accompanied with a less intense sodiated molecular ion m/z 518. The concentrations of the mibefradil and hydrolyzed mibefradil were obtained by comparing the intensities of m/z 496 and 424 were to the intensity of m/z 455. For calibration, a standard solution of 50 μM drug was subjected to mass spectrometric analysis.
To test the hypothesis that mibefradil may permeate through the cell membrane to the cytoplasm and be trapped inside cells, the presence of mibefradil was examined in cells pre-incubated with 20 μM of mibefradil using mass spectrometry. […] The localization of mibefradil in cells was examined by measuring the concentration of mibefradil in the pellets and supernatants after lysis of the cells.

[11] = rat; cited from earlier work
NIT-1 cells [12] = experiment: Basal insulin secretion in NIT-1 cells; format: cell-based, mouse; details: 5 μM mibefradil, 3 mM glucose
Source text: NIT-1 is a cell line derived from the β-cells of non-obese-diabetic mouse. This cell line expressed high levels of T-type Ca^2+ current.

NIT-1 cells [13] = experiment: Cytokine-induced cell death in NIT-1 cells; format: cell-based, mouse
[14] = 5 mM for 1 hour, followed by 3 hour recovery
[15] = cells pre-incubated with 20 μM mibefradil

CN(N=O)C(=O)N[C@H]1C(O)O[C@H](CO)[C@@H](O)[C@@H]1O (mixture of isomers) [streptozotocin]
calcium influx on stimulation by 50 KCl (INS-1 cells [1]; [14]): reduced calcium influx compared to control cells | change in basal calcium (INS-1 cells [1]; [14]): two-fold increase in basal calcium

[Cl][Ni][Cl] [NiCl2]
block of cytokine-induced LVA Ca^2+ current (LVA Ca^2+ current): blocked | insulin secretion (HIT-T15): not affected | onset and number of action potentials (INS-1 cells [2]): a delay in the onset of an action potential and a decrease in number of action potentials | frequency of spontaneous calcium spikes (INS-1 cells [3]): reduced the frequency of spontaneous calcium spikes immediately; also recorded: reduced the frequency of transient spontaneous elevation of [Ca^2+]i | insulin secretion (INS-1 cells [4]): reduced insulin secretion in a dose-dependent manner | effect on cytokine-induced increase in basal [Ca^2+]i (mouse islet cells): blocked; also recorded: prevented the increase in [Ca^2+]i | effect on cytokine-induced cell death (β-TC3 cells [5]): effectively reduced the β-cells killing potency of cytokines; also recorded: significantly reduced cell death | inhibition of spontaneous elevation of basal Ca^2+ (NIT-1 cells [6]): 90% | effect on cytokine-induced DNA fragmentation (β-TC3 cells [7]): prevented cytokine-induced DNA fragmentation | amplitude of T-type current after drug delivery, % of initial level (T-type Ca^2+ current [8]; drug diffusing system, about 2 μl of 30 μM delivered near the cell, rapid reduction): 40% | amplitude of T-type current after recovery, % of initial level (T-type Ca^2+ current [8]; drug diffusing system, about 2 μl of 30 μM, within 3 minutes): 80% | reversibility of the inhibition of T-type Ca^2+ current (T-type Ca^2+ current [8]; drug diffusing system): reversibly block T type Ca^2+ current

N=C(N)NC(=O)c1nc(Cl)c(N)nc1N [amiloride]
effect on cytokine-induced DNA fragmentation (β-TC3 cells [7]): prevented cytokine-induced DNA fragmentation

CC(C)[C@H]1c2ccc(F)cc2CC[C@]1(O)CCN(C)CCCc1nc2ccccc2[nH]1.Cl [dm-mibefradil, (1S,2S)-2-[2-[[3-(2-Benzimidazolyl)propyl]methylamino]ethyl]-6-fluoro-1,2,3,4-tetrahydro-1-isopropyl-2-napthyl hydroxy hydrochloride]
effect on L-type Ca^2+ current from inside of cells (L-type Ca^2+ current; whole-cell): specifically blocked

COCC(=O)O[C@]1(CCN(C)CCCc2nc3ccccc3[nH]2)CCc2cc(F)ccc2[C@@H]1C(C)C [mibefradil, (1S,2S)-2-[2-[[3-(2-Benzimidazolyl)propyl]methyl-amino]ethyl]-6-fluoro-1,2,3,4-tetrahydro-1-isopropyl-2-napthyl methoxy-acetate dihydrochloride]
inhibitory effect on T-type Ca^2+ current (T-type Ca^2+ current [9]): potent inhibitory effect | concentration of intracellular mibefradil ([10]; cells incubated with 20 μM mibefradil for one minute, 3 washes, n=3): 3.18 ± 0.78 µM | share of mibefradil detected in the supernatants after lysis of the cells [10, 15]: 92% | share of mibefradil found in the pellets after washing with methanol [10, 15]: 0% | effect on development of hyperinsulinemia [11]: prevented and reversed development of hyperinsulinemia | basal insulin secretion relative to control (NIT-1 cells [12]): less than 40 | relative L-type Ca^2+ currents (L-type Ca^2+ current; 10 nM mibefradil, after 25 minutes, perforated patch-clamp): 70% | L-type current densities after incubation (L-type Ca^2+ current; 10 nM mibefradil, two hours incubation, perforated patches): further reduction of current densities | effect on L-type Ca^2+ current from inside of cells (L-type Ca^2+ current; whole-cell): did not have inhibitory effects | L-type Ca^2+ current, % of the beginning amplitude (L-type Ca^2+ current; 1 μM mibefradil, after 10 minutes, whole-cell, n=4): up to 70% | block of L-type Ca^2+ current (L-type Ca^2+ current; 1 μM, INS-1 cells): blocks T- and L-type Ca^2+ current | reversibility of the inhibition of L-type Ca^2+ current (L-type Ca^2+ current; drug diffusing system, perforated patch): poorly reversible | effect on cytokine-induced cell death (NIT-1 cells [13]): reduced β-cells death induced by cytokines | effect on cytokine-induced DNA fragmentation (β-TC3 cells [7]): prevented cytokine-induced DNA fragmentation | long-term effect on the T-type Ca^2+ current (T-type Ca^2+ current [8]; 10 nM, perforated patch): no long-term effect | block of T-type Ca^2+ current (T-type Ca^2+ current [8]; 1 μM in recording chamber, conventional whole cell patch clamp, dihydrochloride): blocks T- and L-type Ca^2+ current | effect on T-type Ca^2+ current from inside of cells (T-type Ca^2+ current [8]; 1 μM in the pipette solution, whole-cell, 5 min after patch formation): did not have inhibitory effects | sensitivity of T-type versus L-type Ca^2+ current (T-type Ca^2+ current [8]; 1 μM, pancreatic β-cells): more sensitive | reversibility of the inhibition of T-type Ca^2+ current (T-type Ca^2+ current [8]; drug diffusing system, dihydrochloride): clearly reversible; also recorded: reversibly block T type Ca^2+ current | time dependence of the inhibition of T-type Ca^2+ current (T-type Ca^2+ current [8]; whole-cell patch clamp, bath perfusion): No time-dependent inhibition | effect on basal [Ca^2+]i (INS-1 cells [1]; 1 μM, single INS-1 cell with basal [Ca^2+]i near 150 nM, no glucose, dihydrochloride): immediately lowered the basal calcium; also recorded: reduced basal [Ca^2+]i
